The values that follow come from patent publication US20190084909A1, “F[…] COMPOUNDS, COMPOSITIONS AND USES THEREOF” (YISSUM RESEARCH DEVELOPMENT COMPANY OF THE HEBREW …, priority 2015, published 2019).

The structures appear in SMILES notation. Values joined by “and” are separate entries in the source; they are usually repeats but may differ in a detail not shown here. Identical values can stand only once.

In one assay the test system is rats. The settings on record: Vogel punished licking test, intra-dlPAG; cited from earlier work.
The test system of assay [1] is Swiss mice. The settings on record: i.p., doses tested 3, 10, 30 and 100 mg/kg; cited from earlier work.
Assay [2] has as its system Swiss mice. The settings on record: single administration i.p., MK801 0.3-1 mg/kg i.p.; 1 and 15 mg/kg also tested; cited from earlier work.
The subject of the next assay is Male Swiss mice. Put plainly: Pre-pulse inhibition (PPI), impairment induced by amphetamine. It is filed as in vivo. On the procedure:
Male Swiss mice (25-30 g) originated from the Central Animal Farm of the School of Medicine of Ribeirão Preto (FMRP-USP) were maintained in groups of five animals per box (41×33×17 cm) in a temperature controlled room (24±2° C.) with a 12×12 h light-dark cycle. They received water and food ad libitum throughout the study period.
Cannabidiol (CBD; THC Pharm, 15-60 mg/kg) and HU-485 (1-10 mg/kg) were administered intraperitoneally (ip). All drugs were dissolved in 2% Tween 80 in sterile saline.
The PPI test was conducted simultaneously in two identical startle response systems (Med Associates, USA). A continuous acoustic signal provided a background white noise level of 65 dB. The pulse consists of a 105 dB white noise burst with a rise/decay of 5 ms and duration of 20 ms. The pre-pulse comprised pure 7000 Hz tones, 10 ms duration, with intensities set at 80, 85, and 90 dB. The setups were daily calibrated to ensure equal sensitivity throughout the experiments. Calibration was performed by adjusting the gain on the load cell amplifier to 150 arbitrary units (AU) at a standard weight appropriated for a 40 g mice. The limits of the load cell were −2047 to +2047 AU. Thirty min after the injection of the tested compounds mice received i.p. injections of amphetamine 10 mg/kg or vehicle. […] The first 10 pulse-alone trials allow for the within-session habituation to the startle stimulus and are not considered for PPI statistical analysis. The test consisted of 64 pseudo-random trials divided into eight different groups presented with an inter-stimulus interval of 30 s, and consisting of pulse alone (105 dB), pre-pulse alone (80, 85, or 90 dB), pre-pulse+pulse with 100 ms interval between pre-pulse and pulse, and no stimulus presented. […] Mean acoustic startle response to pulse-alone (P) trials and each pre-pulse+pulse (PP+P) trial was recorded for each subject. PPI was calculated by expressing the pre-pulse+pulse startle amplitude as a percentage of decrease from pulse-alone startle amplitude, according to the following formula: % PPI=100−[100×(PP+P/P)]. This transformation reduces statistical variability attributable to differences between animals and it is a direct PPI measure. Antipsychotic drugs typically attenuate PPI impairment induced by amphetamine.
Results were analyzed by one-way ANOVA followed by Duncan test. […]
Animals received a first injection of vehicle (V) or CBD, followed 30 min later, by vehicle (n=9) or amphetamine 10 mg/kg (V+amphetamine group=9 animals). PPI was evaluated at three-stimuli intensity (90, 85 and 80 dB). […]
Animals received a first injection of vehicle (V) or HU-485, followed 30 min later, by vehicle (n=7) or amphetamine 10 mg/kg (V+amphetamine group=7 animals). PPI was evaluated at three-stimuli intensity (90, 85 and 80 dB). […]

Assay [3] relates to Male Wistar rats. The settings on record: intra-dlPAG; doses tested 15, 30 and 60 nmol; cited from earlier work.
For assay [4], the system named is Swiss mice. The settings on record: cited from earlier work.
Another assay concerns male C57BL/6J mice. In words: Pre-pulse inhibition (PPI) test, impairment induced by MK-801. It counts as in vivo. On the procedure:
The experiments were performed using male C57BL/6J mice weighting 25-30 g. The animals were maintained throughout the experimental period under standard laboratory conditions with free access to water and food will be used.
HU-474 (3 and 10 mg/kg) was dissolved in 2% Tween 80 in sterile saline (vehicle). MK-801 (a NMDA antagonist, 0.5 mg/kg, Sigma, USA) was dissolved in saline. Drugs were administered intraperitoneally (ip) at 10 mL/kg volume.
The animals (n=9-11/group) received i.p. administration of vehicle or HU-474 (3 and 10 mg/kg) followed, 30 minutes later, by saline or MK-801 (0.5 mg/kg), resulting in the following experimental groups: vehicle+saline, HU 10+saline, vehicle+MK-801, HU 3+MK-801, HU 10+MK-801. The animals were submitted to PPI test 20 minutes after the last drug injection.
The PPI was carried out in three consecutive steps. The first consisted of an acclimation period during which no stimulus was presented. In the second step, called habituation, only the stimulus that triggers the startle (pulse) was presented. […] During this session the stimuli are presented at regular intervals of 30 s, 8 presentations of each stimulus. The percentage of the PPI was expressed as the percent inhibition of startle amplitude in response to multiple presentations of the pulse preceded by pre-pulse (PP), depending on the amplitude of the response only to the pulse (P), which was obtained in the following formula: % PPI=100−((PP/P)×100). Using this formula 0% represents no difference between the amplitude of startle triggered only by the pulse or pulse preceded by the pre-pulse and therefore no pre-pulse inhibition. This transformation was performed in order to reduce the statistical variability attributable to differences between animals and represents a direct measure of pre-pulse inhibition (Issy et al., 2009).
The percentage of PPI was analyzed by repeated measures MANOVA with the treatment as the independent factor and the prepulse intensity (80, 85 and 90 dB) as repeated measure.

Assay [5] relates to Swiss mice. In words: Forced swimming test (FST), mice. It counts as in vivo. The method, then:
(§1) Male Wistar rats (220-250 g) and Swiss mice (25-30 g) originated from the Central Animal Farm of the School of Medicine of Ribeirio Preto (FMRP-USP) were maintained in groups of five animals per box (41×33×17 cm) in a temperature controlled room (24±2° C.) with a 12×12 h light-dark cycle. They received water and food ad libitum throughout the study period.
(§2) HU-474 (1, 3 and 10 mg/kg) was administered intraperitoneally (IP) in mice at 10 mL/kg volume and HU-475 (1, 3 and 10 nmol) was injected intra-dIPAG in rats. Both drugs were dissolved in 2% Tween 80 in sterile saline.
Animals were individually submitted for 6 min of forced swimming in glass cylinders (height 25 cm, diameter 17 cm) containing 10 cm of water. The mice were videotaped and the immobility time (characterized by slow movements necessary to avoid drowning) was measured during the last 4-min period. The water was changed after each trial to maintain the temperature at 23-25° C. and to prevent the influence of alarm substances (Zanelati et al., 2010).
(§3) Results from HU-475 and HU-474 tests in the elevated plus maze were analyzed by Kruskal-Wallis followed by Mann-Whitney tests. Data from animals tested in the FST were analyzed by one-way ANOVA followed by Duncan test.

The subject of assay [6] is Swiss mice. In words: Elevated plus maze (EPM), mice, HU-474 IP. It counts as in vivo. The method, then:
as §1, §2
The wood EPM used to perform the experiments was located in a sound attenuated and temperature controlled room (23° C.), with one incandescent light (40 W) placed 1.3 m away from the maze. The apparatus consists of two opposing open arms (50×10 cm) without side walls, perpendicular to two enclosed arms (50×10×40 cm), with a central platform common to all arms (10×10 cm). The apparatus is elevated 50 cm above the ground and has an acrylic edge (1 cm) in the open arms to prevent animal falls. In this model, rodents naturally avoid the open arms, exploring more extensively the enclosed arms. Anxiolytic drugs increase the exploration in open arms without affecting the number of enclosed arms entries, which is usually used to assess general exploratory activity (File, 1992). Ten minutes after the last injection the animal was placed on the central platform of the maze with the head facing one of the enclosed arms. The test lasted for 5 min and was recorded. The animal behavior was analyzed with the help of the Anymaze Software (version 4.5, Stoelting). This software indicates the location of the animal in the EPM and automatically calculates the percentage of entries (Peo) and time spent in the open arms (Pto) and the number of entries in the enclosed arms (EA). Animals were only considered to enter an open or enclosed arm when 90% of their bodies were inside the region. All experiments were performed in the morning period (8 to 12 a.m.).
Similar to 5.1 except that the each arm measured 30×5 cm. 5.3 Forced Swimming Test (FST) Mice
as §3

Assay [7] concerns Male Wistar rats. Put plainly: Elevated plus maze (EPM), rats, microinjection into the dorsolateral periaqueductal gray. It counts as in vivo. The method, then: as §1, §2
Rats were submitted to a stereotaxic surgery to unilaterally implant cannulae (9.0 mm, 0.6 mm OD) into the dIPAG (coordinates: lateral: −1.9 mm; depth: −4.3 mm; angle: 16° from lambda; Paxinos and Watson, 2005), fixed to the skull with acrylic cement (Campos & Guimarães, 2008). The surgeries were performed under anesthesia with tribromoethanol 2.5% (10.0 mL/kg, IP) and immediately after the animals received Veterinary Pentabiotic (0.2 mL, intramuscular) and analgesic (Banamine, 1.0 mL/kg, subcutaneous) to prevent infections and decrease post-surgical pain. After surgery, animals underwent a recovery period of 5-7 days before the behavioral tests.
Animals received unilateral microinjections of vehicle or HU-475 into the dIPAG before being submitted to the behavioral tests. To this aim, microneedles (10.0 mm, 0.3 mm OD), connected to a microsyringe (Hamilton, USA, […]) through a segment of polyethylene (P10) were inserted into the guide cannulae. Solutions were injected with the help of an infusion pump (KD Scientific, USA). A 0.2 μL solution volume was injected over 1 min. After the injections, the needles remained inserted in the cannulae for additional 30 seconds to prevent drug reflux (Campos & Guimarães, 2008).
The wood EPM used to perform the experiments was located in a sound attenuated and temperature controlled room (23° C.), with one incandescent light (40 W) placed 1.3 m away from the maze. The apparatus consists of two opposing open arms (50×10 cm) without side walls, perpendicular to two enclosed arms (50×10×40 cm), with a central platform common to all arms (10×10 cm). The apparatus is elevated 50 cm above the ground and has an acrylic edge (1 cm) in the open arms to prevent animal falls. In this model, rodents naturally avoid the open arms, exploring more extensively the enclosed arms. […] The test lasted for 5 min and was recorded. The animal behavior was analyzed with the help of the Anymaze Software (version 4.5, Stoelting). […]
as §3

For the compound `C=C(C)[C@@H]1CCC(C)=C[C@H]1c1c(O)cc(CCCCC)cc1O` [CBD, Cannabidiol], the “dose producing an anxiolytic-like effect” value in the assay with rats is 30 nmol. Besides, the “dose producing an antidepressant-like effect in the forced swimming test” value in the assay on Swiss mice [1] is reported as 30 mg/kg. Moreover, the “effective dose attenuating PPI deficits caused by MK801” value with Swiss mice [2] was 5 mg/kg. Further, the “effect on PPI impairment by amphetamine” value with Male Swiss mice (CBD 30 and 60 mg/kg ip, intensities of 85 and 80 dB, amphetamine 10 mg/kg) is “attenuated”. In the assay on Male Wistar rats [3], the “effective dose (anxiolytic-like effect in the EPM)” value is recorded as 30 nmol. Besides, in the assay with Swiss mice [4], the “dose able to attenuate the hyper-locomotion induced by MK801” value was 30 mg/kg; the “effective doses, hyperlocomotion induced by d-amphetamine” value is 30 mg/kg and 60 mg/kg.
Regarding `C=C(C)[C@@H]1CCC(C)=CC1c1c(O)cc(CCCCC)c(F)c1O` (stereo partly shown) [HU-474, 4′-fluoro-cannabidiol], the “effect on MK-801 PPI disruption” value with male C57BL/6J mice (10 mg/kg i.p., MK-801 0.5 mg/kg, all prepulse intensities (80, 85, 90 dB), P<0.05) was “attenuated”. In addition, the “effective dose against MK-801 PPI disruption” value with male C57BL/6J mice (i.p., 3 and 10 mg/kg tested) came to 10 mg/kg. Moreover, in the assay on Swiss mice [5] (dose of 3 mg/kg IP (printed 3 m/kg), p=0.019), the “immobility time in the FST” value is “decreased”. In addition, the “immobility time in the FST” value in the assay on Swiss mice [5] (doses of 1 and 10 mg/kg IP) was “ineffective”. In addition, the “potency relative to CBD” value in the assay on Swiss mice [5] (forced swimming test, comparison of effective doses) was 10 times. Besides, in the assay on Swiss mice [6] (1, 3 and 10 mg/kg IP), the “number of enclosed arms entries” value is listed as “No effect” and the “percentage of entries onto the open arms” value is on record as “No effect”. In the assay with Swiss mice [6] (1, 3 and 10 mg/kg IP, vs vehicle, X2=8.13, p<0.05), the “percentage of time spent in the open arms” value is “increased”. In the assay on Swiss mice [6] (systemic administration, bell-shaped dose-response curve), the “effective dose (anxiolytic-like effect in the EPM)” value was found to be 3 mg/kg.
Regarding `C=C(CF)[C@@H]1CCC(C)=CC1c1c(OC(C)=O)cc(CCCCC)cc1OC(C)=O` (stereo partly shown) [HU-475, 10-fluoro-cannabidiol diacetate], in the assay with Male Wistar rats [7] (1, 3 and 10 nmol intra-dlPAG), the “number of enclosed arm entries” value was “No effect”. The “percentage of time spent in the open arms” value with Male Wistar rats [7] (1, 3 and 10 nmol intra-dlPAG, vs vehicle, X2=8.5, p=0.075 (trend)) is recorded as “tended to do the same”. For the same compound, the “percentage of entries onto the open arms” value in the assay on Male Wistar rats [7] (1, 3 and 10 nmol intra-dlPAG, vs vehicle, X2=9.66, p<0.05) is recorded as “increased”. For the same compound, the “potency relative to CBD” value in the assay with Male Wistar rats [7] (EPM, intra-dlPAG injection, comparison of effective doses) came to 10 times.
Turning to `C[C@]12N[C@H](Cc3ccccc31)c1ccccc12` [MK-801, reference compound], in the assay with male C57BL/6J mice (MK-801 0.5 mg/kg i.p., all prepulse intensities, P<0.05), the “effect on PPI” value is given as “significant PPI disruption”.
`CC(N)Cc1ccccc1` (stereo not shown) [amphetamine, reference compound]: the “effect on PPI” value with Male Swiss mice (amphetamine 10 mg/kg i.p., all intensities (90, 85, 80 dB), Duncan p<0.05) is recorded as “impaired PPI”.
